Data as given in patent US11245111B2, “Stable positive side material for all-organic flow battery” (UNIVERSITY OF SOUTHERN CALIFORNIA, priority 2017, dated 2022).

Assay: Proto-desulfonation studies (heat treatment in sulfuric acid)
Format: physicochemical
Details: 1 M solution, 24 hours in 1M sulfuric acid at 60 degrees Celsius
Description: Proto-Desulfonation Studies.
We determined that the molecule was stable against proto-desulfonation, by heat treatment of 1 M solution of DHDMDS 24 hours in 1M sulfuric acid at 60 degrees Celsius. […] If decomposition occurred there would be the formation of a precipitate of an insoluble de-sulfonated material.

Structure (SMILES)	stability against proto-desulfonation (decomposition products observed)
Cc1cc(O)c(S(=O)(=O)O)c(C)c1O [DHDMBS, 2,5-dihydroxy-4,6-dimethylbenzene-1-sulfonic acid]	decomposes readily
Cc1c(O)c(C)c(S(=O)(=O)O)c(O)c1S(=O)(=O)O [DHDMDS, 2,5-dihydroxy-4,6-dimethylbenzene-1,3-disulfonic acid]	no decomposition products
